Patent US10570457B2, “Methods for predicting drug responsiveness” (Medical Prognosis Institute A/S, priority 2014, dated 2020)

Tests used:
[1] = tested on: colorectal cancer patients; assay: Survival of colon cancer patients treated with 5-FU, grouped by NT5E-predicted sensitivity; type: in vivo, human; details: adjuvant chemotherapy with 5-FU; NT5E expression below vs above population median; 232 colorectal cancer biopsies; p=0.006
Method: A clinical dataset of 232 pre-treatment fresh frozen colorectal cancer surgical biopsies was downloaded from Gene Expression Omnibus under accession number GSE17538. The biopsies were analyzed using the Affymetrix HG-U133-Plus_2 array type. The expression of NT5E was determined by reading the intensity of Affymetrix probeset 203939_at, which is predicted to be more highly expressed in 5-FU-resistant patients. Patients were predicted sensitive to 5-FU if the expression of NT5E was below the population median. Patients were predicted resistant if expression of NT5E was above the population median.

[2] = tested on: colorectal cancer; details: cited from earlier work
[3] = target: T1, topoisomerase I (Homo sapiens, UniProt P11387); details: metabolite of irinotecan; cited from earlier work
T1 sequence (P11387 1-765): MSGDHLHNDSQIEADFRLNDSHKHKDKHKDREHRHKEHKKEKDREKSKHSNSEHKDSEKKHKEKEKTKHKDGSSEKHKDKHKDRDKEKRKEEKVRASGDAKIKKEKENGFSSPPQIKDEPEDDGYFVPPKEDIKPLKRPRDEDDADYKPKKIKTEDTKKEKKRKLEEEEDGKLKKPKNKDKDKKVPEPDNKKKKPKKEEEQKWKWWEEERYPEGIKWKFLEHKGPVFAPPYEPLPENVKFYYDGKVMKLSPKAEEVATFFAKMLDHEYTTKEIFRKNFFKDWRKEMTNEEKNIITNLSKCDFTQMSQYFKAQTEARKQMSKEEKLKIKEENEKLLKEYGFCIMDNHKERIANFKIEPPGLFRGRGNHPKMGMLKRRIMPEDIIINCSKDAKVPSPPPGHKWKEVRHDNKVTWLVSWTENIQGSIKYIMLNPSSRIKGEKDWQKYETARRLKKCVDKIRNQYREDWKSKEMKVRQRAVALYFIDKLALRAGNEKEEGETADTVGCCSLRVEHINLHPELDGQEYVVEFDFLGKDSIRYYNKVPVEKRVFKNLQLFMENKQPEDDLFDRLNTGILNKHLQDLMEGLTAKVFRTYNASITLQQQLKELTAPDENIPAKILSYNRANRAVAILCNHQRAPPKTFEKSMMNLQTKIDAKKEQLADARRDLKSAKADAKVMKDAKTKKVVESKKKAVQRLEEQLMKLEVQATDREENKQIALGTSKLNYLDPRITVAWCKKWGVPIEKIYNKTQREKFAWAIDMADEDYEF

SMILES | Survival of predicted-sensitive group versus predicted-resistant group [1] | Survival effect of 5-FU treatment ([2]; adjuvant setting of colorectal cancer) | Response rate, 5-FU monotherapy ([2]; metastatic colorectal cancer) | Potency as a topoisomerase inhibitor relative to irinotecan [3]
O=c1[nH]cc(F)c(=O)[nH]1 [5-Fluorouracil (5-FU), 5-fluorouracil] | significantly higher rate of survival | survival benefit | 10-15% | –
CCc1c2c(nc3ccc(O)cc13)-c1cc3c(c(=O)n1C2)COC(=O)[C@]3(O)CC [SN-38] | – | – | – | significantly greater potency
